Reference: patent US20130224151A1, “Use of FAAH Inhibitors for Treating Abdominal, Visceral and Pelvic Pain” (UNITED STATES OF AMERICA, priority 2010, published 2013)
Entries after “also recorded” stand apart in the source; their conditions may differ.

Tests used:
[1] = tested on: Female Wistar rats; assay: Basal sensitivity to colorectal distension model; format: in vivo, rat; conditions: 3 mg/kg or 10 mg/kg subcutaneously; CRD measured 3 hrs 15 minutes later
[2] = tested on: Male Sprague Dawley (SD) rats; assay: Cortagine-induced visceral hypersensitivity to colorectal distension; format: in vivo, rat
Excerpt: Male Sprague Dawley (SD) rats (250-275 g, Harlan Labs, Indianapolis, Ind.) were kept under standard conditions of humidity and temperature and a 12-hour light/dark cycle (lights on 6.00 a.m.). Animals were group housed and had access to food ad libitum. Prior to the start of studies, animals were acclimatized to handling and administration of treatments (oral syringe feeding and subcutaneous injection). At the end of the experiments, animals were sacrificed by CO2 gas inhalation followed by thoracotomy or isoflurane anesthesia followed by decapitation with appropriate approved animal protocols.
On the day of the experiments, rats were injected intraperitoneally (IP) with cortagine (10 μg/kg, 0.8 ml/kg in DMSO/cremophor/isotonic saline (1:1:8 v:v:v). Cortagine, a selective corticotropin releasing factor receptor 1 (CRF1) agonist, prepared as described previously (Rivier et al. J. Med. Chem. 2007: 50:1668-1674), was stored in a powder form at −80° C. and prepared in sterile water (12.5 μg/ml) immediately before use. This dose had previously been established to show a significant increase in defecation, induction of diarrhea and increase in colonic motility, permeability and visceral pain in rats. (Larauche et al. Am. J. Physiol. Gastrointest. Liver Physiol. 2009: 297:G215-G227)
FAAH inhibitor compounds URB597 [3′-(aminocarbonyl)biphenyl-3-yl cyclohexyl carbamate], compound A and compound B were formulated as suspensions in DMSO/cremophor/isotonic saline (1:1:8 v:v:v). The concentration of the respective dosing FAAH inhibitor compound suspensions were 6 mg/ml for 30 mg/kg dose of compound A or compound B; 2 mg/ml for the 10 mg/kg dose of compound B; and 1.5 mg/ml for the 3 mg/kg dose of URB597. Compound A, compound B or vehicle treatment was administered to rats by per os (PO) route at dose-volume of 5 ml/kg. URB597 treatment was administered to rats by subcutaneous (SC) route at dose volume of 2 ml/kg. The vehicle for the PO route was DMSO/cremophor/isotonic saline (1:1:8 v:v:v). Vehicle (PO), URB597 (SC), compound A and compound B (PO) were administered to non-fasted rats, restrained by hand. The regimen of administration of URB597, compound A and compound B involved one delivery (PO or SC) performed 120 min before IP injection of cortagine.
Visceral pain was assessed using a non-invasive pressure transducer system referred to as “sensor balloon” as previously described (Larauche et al. Am. J. Physiol. Gastrointest. Liver Physiol. 2009: 297:G215-G227; Ness et al. Brain Res. 1988: 450:153-169). Briefly, in adult non-fasted SD rats, a 4-5 cm “sensor balloon” lubricated with surgical lubricant (Surgilube, Fougera, Melville) was inserted intra-anally under brief isoflurane anesthesia. The “sensor balloon” was positioned such that its distal end was 1 cm proximal to the anal verge and secured in place by tapping the balloon catheter to the tail. Rats were placed individually in Boolman's cage and allowed to recover from anesthesia and habituation. The colorectal procedure was performed using the Distender Series Ilir dual barostat (G&J Electronics Inc, Toronto, Ontario). The CRD protocol consisted of 2 CRD at 60 mmHg to unfold the balloon followed by 2 sets of CRD at 10, 20, 40 and 60 mmHg, 20 s duration, 4-min inter-stimulus interval. The intra-luminal colonic pressure (ICP) was recorded for 20 s before, during and after termination of CRD. […]

[3] = 3 mg/kg SC 2 h before cortagine
[4] = 3 mg/kg SC 2 h before cortagine, n=11
[5] = 3 mg/kg SC 2 h before cortagine, normalized to baseline VMR at 60 mmHg

`NC(=O)c1cccc(-c2cccc(OC(=O)NC3CCCCC3)c2)c1` [URB597, 3′-(aminocarbonyl) biphenyl-3-yl cyclohexyl carbamate, reference compound] was tested, and the “basal sensitivity to colorectal distension (number of abdominal contractions)” value [1] was “does not alter basal sensitivity”, the “% hypersensitive rats at 40 mmHg” value [2, 3] was 55% and the “rats with increased VMR over baseline between 0 and 50% at 60 mmHg” value [2, 3] was 18%. The “rats with increased VMR over baseline between 51 and 100% at 60 mmHg” value [2, 3] was 9%, the “rats with increased VMR over baseline over 101% at 60 mmHg” value [2, 3] was 9% and the “effect on cortagine-induced visceral hypersensitivity to CRD” value ([2]; 3 mg/kg SC 2 h before cortagine 10 μg/kg IP, 40 and 60 mmHg) was “abolished the visceral hypersensitivity; also recorded: prevented the visceral hypersensitivity”. For the same molecule, the “rats presenting a decrease in VMR compared to baseline at 60 mmHg” value [2, 4] was 64%, the “rats presenting an increased VMR over baseline (% hypersensitive rats) at 60 mmHg” value [2, 4] was 36% and the “VMR to CRD at 40 mmHg” value [2, 5] was 81.89±16.38%. The “VMR to CRD at 60 mmHg” value [2, 5] was 97.62±20.02%, the “VMR versus vehicle/cortagine rats at 60 mmHg CRD” value ([2]; second trial, URB597 3 mg/kg SC 2 h before cortagine IP, n=7, p<0.001) was “significant differences” and the “antihyperalgesic effects in the cortagine model of visceral pain” value ([2]; summary statement referring to Example 3) was “did exhibit antihyperalgesic effects”.
